Experimental data: PubChem BioAssay (NCI)
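Five concentrations, 48 hours, 96-well plates. Here, GI50 denotes the concentration required for 50% inhibition of growth. TGI: total growth inhibition.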

Experiments:
Experiment in all cases: NCI tumour cell line growth inhibition, 48 h
EKVX NSCLC = system: EKVX NSCLC
M14 melanoma = system: M14 melanoma
OVCAR-5 ovarian = system: OVCAR-5 ovarian
OVCAR-8 ovarian = system: OVCAR-8 ovarian
RPMI-8226 leukemia = system: RPMI-8226 leukemia
SK-MEL-2 melanoma = system: SK-MEL-2 melanoma
SN12C renal = system: SN12C renal
SR leukemia = system: SR leukemia
UO-31 renal = system: UO-31 renal
HOP-62 NSCLC = system: HOP-62 NSCLC

SMILES: FC(F)(F)c1ccc2c(Nc3cccc(C4CC(c5ccccc5)=NN4c4ccc(Cl)cc4)c3)ccnc2c1 (stereo unspecified)
- GI50 (EKVX NSCLC): 10.9 µM
- TGI (EKVX NSCLC): 59.5 µM
- GI50 (M14 melanoma): 3.93 µM
- TGI (M14 melanoma): 22 µM
- GI50 (OVCAR-5 ovarian): 4.13 µM
- TGI (OVCAR-5 ovarian): 20.5 µM
- GI50 (OVCAR-8 ovarian): 3.57 µM
- TGI (OVCAR-8 ovarian): 19.7 µM
- GI50 (RPMI-8226 leukemia): 2.3 µM
- TGI (RPMI-8226 leukemia): 6.46 µM
- GI50 (SK-MEL-2 melanoma): 15.1 µM
- TGI (SK-MEL-2 melanoma): 42.9 µM
- GI50 (SN12C renal): 2.96 µM
- TGI (SN12C renal): 14.6 µM
- GI50 (SR leukemia): 1.26 µM
- TGI (SR leukemia): 9.41 µM
- GI50 (UO-31 renal): 1.82 µM
- TGI (UO-31 renal): 9.68 µM

SMILES: COC(=O)/C(=N\NC(=S)NN)C(C(=O)C(=O)Nc1ccccc1C(N)=O)c1nc2ccccc2[nH]c1=O (stereo unspecified)
- TGI (EKVX NSCLC): > 100 µM
- TGI (M14 melanoma): > 100 µM
- TGI (OVCAR-5 ovarian): > 100 µM
- TGI (OVCAR-8 ovarian): > 100 µM
- TGI (RPMI-8226 leukemia): > 100 µM
- TGI (SK-MEL-2 melanoma): > 100 µM
- TGI (SN12C renal): > 100 µM
- TGI (SR leukemia): > 100 µM
- TGI (UO-31 renal): > 100 µM

SMILES: C=C(C)[C@@H]1CC[C@@]2(C(=O)O)CC[C@]3(C)C(CCC4[C@@]5(C)CCC(OS(=O)(=O)c6ccccc6)C(C)(C)C5CC[C@]43C)C12 (stereo partly specified)
- GI50 (EKVX NSCLC): 2.58 µM
- TGI (EKVX NSCLC): 19.3 µM
- GI50 (HOP-62 NSCLC): 5.15 µM
- TGI (HOP-62 NSCLC): 18.5 µM
- GI50 (M14 melanoma): 11.2 µM
- TGI (M14 melanoma): 25.1 µM
- GI50 (OVCAR-5 ovarian): 9.44 µM
- TGI (OVCAR-5 ovarian): 28.7 µM
- GI50 (OVCAR-8 ovarian): 5.8 µM
- TGI (OVCAR-8 ovarian): 88.7 µM
- GI50 (RPMI-8226 leukemia): 1.69 µM
- TGI (RPMI-8226 leukemia): > 100 µM
- GI50 (SK-MEL-2 melanoma): 4.4 µM
- TGI (SK-MEL-2 melanoma): 16.3 µM
- GI50 (SN12C renal): 4.88 µM
- TGI (SN12C renal): 30.6 µM
- GI50 (UO-31 renal): 2.79 µM
- TGI (UO-31 renal): 15.9 µM

SMILES: CN1CCN(C)C1c1cccc(C2N(C)CCN2C)c1
- TGI (HOP-62 NSCLC): > 100 µM
- TGI (M14 melanoma): > 100 µM
- TGI (OVCAR-5 ovarian): > 100 µM
- TGI (RPMI-8226 leukemia): > 100 µM
- TGI (SK-MEL-2 melanoma): > 100 µM
- TGI (SN12C renal): > 100 µM
- TGI (UO-31 renal): > 100 µM

SMILES: CC/C=C\C/C=C\C1CC(=O)NCCCNCCCCN1 (stereo unspecified)
- TGI (EKVX NSCLC): > 100 µM
- TGI (HOP-62 NSCLC): > 100 µM
- TGI (M14 melanoma): > 100 µM
- TGI (OVCAR-5 ovarian): > 100 µM
- TGI (OVCAR-8 ovarian): > 100 µM
- TGI (SK-MEL-2 melanoma): > 100 µM
- TGI (SN12C renal): > 100 µM
- TGI (SR leukemia): > 100 µM
- TGI (UO-31 renal): > 100 µM

SMILES: Cc1ncc([N+](=O)[O-])n1CCNC(=O)CCCCn1ccnc1[N+](=O)[O-]
- TGI (HOP-62 NSCLC): > 100 µM
- TGI (M14 melanoma): > 100 µM
- TGI (OVCAR-5 ovarian): > 100 µM
- TGI (OVCAR-8 ovarian): > 100 µM
- TGI (SK-MEL-2 melanoma): > 100 µM
- TGI (SN12C renal): > 100 µM
- TGI (SR leukemia): > 100 µM
- TGI (UO-31 renal): > 100 µM

SMILES: CC1CCCC(C(=O)/C(=C/c2cccc(Cl)c2)C(=O)C(=O)O)C1 (stereo unspecified)
- TGI (EKVX NSCLC): > 100 µM
- TGI (HOP-62 NSCLC): > 100 µM
- TGI (M14 melanoma): 68.5 µM
- TGI (OVCAR-5 ovarian): > 100 µM
- TGI (OVCAR-8 ovarian): 40 µM
- TGI (RPMI-8226 leukemia): 38 µM
- TGI (SN12C renal): > 100 µM
- TGI (UO-31 renal): > 100 µM

SMILES: O=C(N/N=C/c1ccc(Cl)cc1Cl)c1ccccc1Nc1cccc(C(F)(F)F)c1
- GI50 (EKVX NSCLC): 12.2 µM
- TGI (EKVX NSCLC): 80.1 µM
- GI50 (HOP-62 NSCLC): 5.36 µM
- TGI (HOP-62 NSCLC): 18.3 µM
- GI50 (M14 melanoma): 5.51 µM
- TGI (M14 melanoma): 35.3 µM
- GI50 (OVCAR-5 ovarian): 24.3 µM
- TGI (OVCAR-5 ovarian): > 100 µM
- GI50 (OVCAR-8 ovarian): 2.47 µM
- TGI (OVCAR-8 ovarian): 5.99 µM
- GI50 (RPMI-8226 leukemia): 2.87 µM
- TGI (RPMI-8226 leukemia): 46.3 µM
- GI50 (SK-MEL-2 melanoma): 2.76 µM
- TGI (SK-MEL-2 melanoma): 10.7 µM
- GI50 (SN12C renal): 7.66 µM
- TGI (SN12C renal): 48.2 µM
- GI50 (UO-31 renal): 3.14 µM
- TGI (UO-31 renal): 22.1 µM

SMILES: c1cc[c]([Sn]([S]c2cccc3cccnc23)([c]2ccccc2)[c]2ccccc2)cc1
- GI50 (EKVX NSCLC): 0.0558 µM
- TGI (EKVX NSCLC): 0.37 µM
- GI50 (HOP-62 NSCLC): 0.103 µM
- TGI (HOP-62 NSCLC): 0.368 µM
- GI50 (M14 melanoma): 0.0222 µM
- TGI (M14 melanoma): 0.0624 µM
- GI50 (OVCAR-8 ovarian): 0.0387 µM
- TGI (OVCAR-8 ovarian): 0.255 µM
- GI50 (SN12C renal): 0.0326 µM
- TGI (SN12C renal): 0.161 µM
- GI50 (UO-31 renal): 0.0511 µM
- TGI (UO-31 renal): 0.145 µM

SMILES: Cc1sc(C)c(-c2ccc(CO)o2)c1-c1ccc(CO)o1
- GI50 (HOP-62 NSCLC): 0.372 µM
- TGI (HOP-62 NSCLC): > 100 µM
- GI50 (M14 melanoma): 70.9 µM
- TGI (M14 melanoma): > 100 µM
- GI50 (OVCAR-8 ovarian): 75.4 µM
- TGI (OVCAR-8 ovarian): > 100 µM
- GI50 (RPMI-8226 leukemia): 13.5 µM
- TGI (RPMI-8226 leukemia): > 100 µM
- GI50 (SK-MEL-2 melanoma): 5.03 µM
- TGI (SK-MEL-2 melanoma): > 100 µM
- GI50 (SN12C renal): 96.6 µM
- TGI (SN12C renal): > 100 µM
- GI50 (SR leukemia): > 77.9 µM
- TGI (SR leukemia): > 100 µM
- GI50 (UO-31 renal): 28.8 µM
- TGI (UO-31 renal): > 100 µM

SMILES: C=C(COC(C)=O)CC(/C=C(\C)CCC=C(C)C)OC(C)=O (stereo unspecified)
- TGI (EKVX NSCLC): > 100 µM
- TGI (HOP-62 NSCLC): > 100 µM
- TGI (M14 melanoma): > 100 µM
- TGI (OVCAR-5 ovarian): > 100 µM
- TGI (OVCAR-8 ovarian): > 100 µM
- TGI (SK-MEL-2 melanoma): > 100 µM
- TGI (SN12C renal): > 100 µM
- TGI (UO-31 renal): > 100 µM

SMILES: CC(O)CN1C(=O)NC(Cc2ccccc2)C1=O (stereo unspecified)
- TGI (EKVX NSCLC): > 100 µM
- TGI (HOP-62 NSCLC): 86.3 µM
- TGI (M14 melanoma): > 100 µM
- TGI (OVCAR-5 ovarian): > 100 µM
- TGI (OVCAR-8 ovarian): > 100 µM
- TGI (SK-MEL-2 melanoma): > 100 µM
- TGI (SN12C renal): > 100 µM
- TGI (SR leukemia): > 100 µM
- TGI (UO-31 renal): > 100 µM

SMILES: COc1ccc(-c2cc(-c3cc(Cl)ccc3Cl)nc3nc(=S)[nH]c(N)c23)cc1
- GI50 (EKVX NSCLC): 28.5 µM
- TGI (EKVX NSCLC): > 100 µM
- GI50 (HOP-62 NSCLC): 14.9 µM
- TGI (HOP-62 NSCLC): 28.3 µM
- GI50 (M14 melanoma): 24 µM
- TGI (M14 melanoma): 45 µM
- GI50 (OVCAR-5 ovarian): 20.1 µM
- TGI (OVCAR-5 ovarian): 51.4 µM
- GI50 (RPMI-8226 leukemia): 14.3 µM
- TGI (RPMI-8226 leukemia): > 100 µM
- GI50 (SK-MEL-2 melanoma): 81.7 µM
- TGI (SK-MEL-2 melanoma): > 100 µM
- GI50 (SN12C renal): 19.1 µM
- TGI (SN12C renal): 65.7 µM
- GI50 (UO-31 renal): 58.1 µM
- TGI (UO-31 renal): > 100 µM

SMILES: Cc1ccc(-c2nc(C(Cl)Cl)n3nc(-c4ccccc4)cc3n2)cc1
- GI50 (HOP-62 NSCLC): 0.566 µM
- TGI (HOP-62 NSCLC): 3.15 µM
- GI50 (M14 melanoma): > 100 µM
- TGI (M14 melanoma): > 100 µM
- GI50 (OVCAR-8 ovarian): 0.512 µM
- TGI (OVCAR-8 ovarian): > 100 µM
- GI50 (RPMI-8226 leukemia): 0.499 µM
- TGI (RPMI-8226 leukemia): 3.11 µM
- GI50 (SN12C renal): > 100 µM
- TGI (SN12C renal): > 100 µM

SMILES: CC(=O)OCCOCBr
- TGI (EKVX NSCLC): > 100 µM
- TGI (HOP-62 NSCLC): > 100 µM
- TGI (M14 melanoma): > 100 µM
- TGI (OVCAR-5 ovarian): > 100 µM
- TGI (OVCAR-8 ovarian): > 100 µM
- TGI (RPMI-8226 leukemia): > 100 µM
- TGI (SK-MEL-2 melanoma): > 100 µM
- TGI (SN12C renal): > 100 µM
- TGI (UO-31 renal): > 100 µM

SMILES: NC1=NC(=O)C(CC(=O)Nc2ccc([N+](=O)[O-])cc2[N+](=O)[O-])S1 (stereo unspecified)
- TGI (EKVX NSCLC): > 100 µM
- TGI (HOP-62 NSCLC): > 100 µM
- TGI (M14 melanoma): > 100 µM
- TGI (OVCAR-5 ovarian): > 100 µM
- TGI (OVCAR-8 ovarian): > 100 µM
- TGI (RPMI-8226 leukemia): > 100 µM
- TGI (SK-MEL-2 melanoma): > 100 µM
- TGI (SN12C renal): > 100 µM
- TGI (UO-31 renal): > 100 µM

SMILES: CCN(Cc1c(F)cccc1F)c1ccc(CO)c(Cl)c1
- GI50 (HOP-62 NSCLC): 0.327 µM
- TGI (HOP-62 NSCLC): 34.7 µM
- GI50 (M14 melanoma): 19.4 µM
- TGI (M14 melanoma): 48.1 µM
- GI50 (OVCAR-5 ovarian): 0.0353 µM
- TGI (OVCAR-5 ovarian): 0.147 µM
- GI50 (OVCAR-8 ovarian): 4.15 µM
- TGI (OVCAR-8 ovarian): 35.8 µM
- GI50 (RPMI-8226 leukemia): 1.1 µM
- TGI (RPMI-8226 leukemia): 41.4 µM
- GI50 (SK-MEL-2 melanoma): 14.6 µM
- TGI (SK-MEL-2 melanoma): 31.8 µM
- GI50 (SN12C renal): 15.4 µM
- TGI (SN12C renal): 58.5 µM
- GI50 (SR leukemia): 16.5 µM
- TGI (SR leukemia): 49.2 µM
- GI50 (UO-31 renal): 2.3 µM
- TGI (UO-31 renal): 51.4 µM

SMILES: CC(=O)c1c(C)n([O-])c2cc(C)c(C)cc2[n+]1=O
- TGI (EKVX NSCLC): > 100 µM
- TGI (HOP-62 NSCLC): > 100 µM
- TGI (M14 melanoma): > 100 µM
- TGI (OVCAR-5 ovarian): > 100 µM
- TGI (OVCAR-8 ovarian): > 100 µM
- TGI (RPMI-8226 leukemia): > 100 µM
- TGI (SK-MEL-2 melanoma): > 100 µM
- TGI (SN12C renal): > 100 µM
- TGI (UO-31 renal): > 100 µM
